For data set [1], the system named is bone marrow polychromatic erythrocytes. The format is in vivo, mice. How it is done:
This test was carried out following standard protocols, [5]. […] Animals were sacrificed 24 h later and the bone marrow from both femurs was flushed out using 2 mL of saline and centrifuged for 5 min at 3000 rpm. The supernatant was discarded, and the pellet was re-suspended in 0.3 mL of saline. Of this smears were made on glass slides. The slides were fixed with methanol and stained with 10% Wright–Giemsa stain. Cells were blindly scored using a light microscope at 100 X magnification. For the analysis of micronucleated cells, 1000 polychromatic erythrocytes (PCE) per animal were scored. In order to assess the cytotoxic effects of compounds, the ratio of PCE to normochromatic erythrocytes (NCE) was determined in 1000 erythrocytes, [5]. The results are presented as the mean number of micronucleated polychromatic erythrocytes (MNPCE) or the ratio PCE:NCE in individual mice (two smears per animal)±SEM for five animals per group (Table 3).

The subject of the next data set is ICR male mice. Nature of the data set: Acute toxicity in mice by the Lorke method. The following applies: for Dead mice: i.p., dead/treated, observed 14 days. How it is done:
(§1) Experiments were performed on ICR male mice by the Lorke method. Doses were selected according this method. In both phases, mice were observed daily for 14 days for mortality, toxic effects and behavioral changes. Restlessness, respiratory distress, seizures, diarrhea, motor activity, posture and reflexes were qualitatively determined. Body weight was also monitored. The internal organs (including the stomach, heart, lung, liver, and kidneys) were removed at the end of experiment and visually examined for lesions.

Data set [2] can be described thus: Acute toxicity in mice by the Lorke method. The conditions noted are these: male, ICR, mouse, in vivo, ip. As to the method: as §1
The subject of the next data set is normotensive rats. The data set can be described thus: Cardiovascular response in normotensive conscious rats (tail cuff method). Type of data set: in vivo. The conditions noted are these: 50 and 80 mg/kg, p.o. How it is done:
The hypotensive activity was determined using a standard protocol of Avila-Villarreal et al.. This study was conducted in normotensive rats. […] Systolic and diastolic blood pressure as well as heart rate were recorded before and after treatment at 0, 1, 3, 5 and 7 h by the tail cuff method using a Panlab non-invasive blood pressure system for rodents and dogs (Harvard Apparatus). Percent of reduction in heart rate (HR), systolic blood pressure (SBP) or diastolic blood pressure (DBP) were calculated using diltiazem as control (Fig. 2).

Data set [3] relates to brine shrimp larvae (Artemia salina L.). The data set can be described thus: Artemia saline lethality test. The format is in vivo.
[4] abbreviates: mice, i.p. (LIA, lidocaine 100 mg/kg; cyclophosphamide 40 mg/kg), 24 h, mean±SEM, five animals.

Structures are written as SMILES. Like-named read-outs stand apart in the source and are kept apart here.

For `O=P1(N(CCCl)CCCl)NCCCO1` (stereo not drawn) [Cyclophosphamide, reference compound], in data set [1] (setting [4]), the “MNPCE per 1000 PCE” value turned out to be 82.6±1.8 and the “PCE:NCE” value came to 14±0.3.
As a reminder, the LD50 is the dose expected to kill half of the subjects tested. A higher LD50 goes with a less toxic substance. The term LC50 denotes the concentration lethal to half of the exposed cells or organisms. For the molecule `CC1CCN(CC(=O)Nc2c(Cl)cccc2Cl)CC1` [LIA, N-(2,6-dichlorophenyl)-2-(4-methyl-1-piperidinyl)acetamide], in data set [1] (male, ICR, mouse, in vivo), the “MNPCE per 1000 PCE” value is reported as 5.8±1.9 ^⁎^, ^#. For the same molecule, the “PCE:NCE” value in data set [1] (male, ICR, mouse, in vivo) stood at 20.7±1.6. Also, the “Genotoxicity in mice (in words)” value in data set [1] (mouse, in vivo) is “not genotoxic”. The Dead mice in the data set on ICR male mice (Phase I, 10 mg/kg) is given as 0/3; with ICR male mice (Phase I, 100 mg/kg), 0/3; with ICR male mice (Phase I, 1000 mg/kg) it was 3/3; in the data set with ICR male mice (Phase II, 140 mg/kg), 0/3; in the data set with ICR male mice (Phase II, 225 mg/kg), 0/3; with ICR male mice (Phase II, 370 mg/kg), 0/3. Also, the Dead mice with ICR male mice (Phase II, 600 mg/kg) is given as 3/3. The “Macroscopic damage of internal organs (stomach, heart, lung, liver, kidneys)” value in the data set on ICR male mice (mice, visual examination at the end of experiment (14 days)) is “Neither LIA nor lidocaine produced visible macroscopically damage”. In addition, the “Toxicity in mice (in words)” value in the data set with ICR male mice (mouse, in vivo) was “not toxic”. In data set [2], this molecule displayed an LD50 at 14 days of 800 mg/kg. Moreover, in the data set on normotensive rats, the “Cardiovascular responses (heart rate, systolic and diastolic blood pressure; in words)” value is recorded as “does not modify cardiovascular responses”. The molecule also had a median lethal concentration (LC50) in data set [3] (Artemia saline L., 24 h, 100-1000 ppm in triplicate) of 335.1 ±85.7 ppm. For the same molecule, the “Toxicity in Brine Ship (in words)” value in data set [3] (in vivo) was “not toxic”.

For the origin of these results see article PMC5156471, “Complementary pharmacological and toxicological characterization data on the pharmacological profile of N-(2,6-dichlorophenyl)-2-(4-methyl-1-piperidinyl) acetamide” (Data in Brief, 2016).
